Measurements: patent US20210108198A1, “APPLICATION OF COMPOUND OR TRADITIONAL CHINESE MEDICINE EXTRACT IN PREPARATION OF NUCLEIC ACID DELIVERY AGENT AND RELATED PRODUCTS THEREOF” (INSTITUTE OF BASIC MEDICAL SCIENCES CHINESE ACADEMY OF …, priority 2017, published 2021)

Tests used:
A549 cell = test: RT-qPCR detection of nucleic acid delivered by lipid into A549 cells; assay type: cell-based, human; details: various small RNA 200 nM; reverse evaporation method; 3 hours; compared with the control; FIG. 11A-C
Protocol: 3.1 NCI-N87 cell (gastric cancer cell), MRC-5 cell (lung fibroblast), A549 cell (lung cancer cell) were cultured to logarithmic growth phase, and then plated to a six-well plate at cell density of 1×10^6/2 mL medium/well; MRC-5 cell was cultured in Eagle's MEM medium (MEM, Gibco); A549 cell was cultured in Ham's F-12 medium (HyClone); NCI-N87 cell was cultured in RPMI-1640 medium (HyClone); followed by incubation overnight at 37° C., and the follow-up experiments were performed after the cells were attached to the walls.
4) Lipid nucleic acid mixture: the mixture of lipid and HJT-sRNA-m7 prepared from the step 2 were added into cells and mixed, and the final concentration of RNA was kept at 200 nM.
3.3 After co-incubation with the small RNA for 3 hours, the cells were washed 2-3 times with PBS. The cells were harvested with TRIzol lysis buffer, and the total RNA was extracted. The abundance of small RNA that entered cells was detected by RT-qPCR, and the localization of RNA was detected by fluorescence in situ hybridization; protocols of each detection method were as follows:
3.3.1 RT-qPCR Detection of Small RNA (Taqman Probe Method)
3.3.2 RT-qPCR Detection of Small RNA (SYBR Green Dye Method)
(§1) Mixtures of soybean PC, lipid No. 11 (18:0/18:2) and lipid No. 12 (16:0/18:2), and various small RNA (see below Table 3) were prepared by the reverse evaporation method and then added into A549 cell line (the final concentration of sRNA was 200 nM); the negative control group (control) was directly added with the same concentration of sRNA; the positive control group (RNAimax) was transfected with Lipofectamine RNAimax (transfection reagent 6 μl/well). The abundance of sRNA in the cells was detected by Taqman probe after 3 hours, and the relative expression level of sRNA was calculated by 2-ΔCt method.
3.1.3 After co-incubation with cells for 12-24 hours, the cells were washed twice with PBS. The cells were harvested with TRIzol lysis buffer (purchased from Sigma-Aldrich), and total RNA was extracted. The abundance of HJT-sRNA-m7 that entered the cells was detected by RT-qPCR; the protocols were as follows:
4368813) was used to reverse transcribe sRNA to cDNA by stem-loop method (see, e.g. Real-time quantification of microRNAs by stem-loop RT-PCR, Nucleic Acids Res. 2005 Nov. 27; 33(20):e179, incorporated by reference herein).

A549 cell line = test: Fluorescence in situ hybridization (FISH) of small RNA delivered by lipid; assay type: cell-based, human; details: reverse evaporation method; FIG. 12
Protocol: 3.3.3 Fluorescence In Situ Hybridization (FISH) of Small RNA
9) The culture plate was placed in a hybridization cassette in hybridization buffer (50% formamide, 5×SSC, 5× Denharts, 250 μg/mL yeast RNA, 500 μg/mL herring sperm DNA) and pre-incubated at room temperature for 1 hour.
10) Add RNA probes (HJT-sRNA-m7 probe: 5′-[…]-3′ (SEQ ID NO: 27), Scrambled probe: 5′-[…]-3′ (SEQ ID NO: 28), U6 probe: 5′-[…]-3′ (SEQ ID NO: 29)) to the hybridization buffer (the concentration of RNA probes was 0.1-0.2 ng/μ1), denature at 85° C. for 5 min, and quickly place it on ice. […]
as §1

[1] = test system: 3′UTRs of their target genes; test: Luciferase with wild-type or mutated 3′UTR of target gene after lipid-mediated sRNA delivery; assay type: cell-based; details: FIG. 13
Description: It can be used as a means for the delivery of nucleic acid drug.

[2] = In vivo delivery of lipid nucleic acid mixture by gavage (blood and lung); design: species or system C57 mice; details: gavage 200 μl/animal; 6 hours after gavage; FIG. 14
Protocol: 1. Preparation of lipid nucleic acid mixture: the mixture of lipid No. 11 or No. 12 with nucleic acid, and the mixture of the lipid combination of No. 1/2/4/9/14/18/19/20/21/22/23/24/25/26/27/28/29/30/32, No. 3/8/10/11/12/13, and No. 6/15/16/17/31 with nucleic acid were prepared by reverse evaporation and boiling method (refer to steps 2.1-2.2).
2. Gavage were performed on 6-8 weeks old male C57 mice: 200 μl/aminal, grouped as follows:
(1) Control group (free uptake group): no treatment or HJT-sRNA-m7 was given by gavage;
(2) Lipid No. 11 (18:0/18:2) group: lipid No. 11 (18:0/18:2) or a mixture of lipid No. 11 (18:0/18:2) and HJT-sRNA-m7 were given by gavage;
(3) Lipid No. 12 (16:0/18:2) group: lipid No. 12 (16:0/18:2) or a mixture of lipid No. 12 (16:0/18:2) and HJT-sRNA-m7 were given by gavage;
3. Sample collection: 6 hours after gavage, mouse whole blood (500 μl) and lung (110 mg) were collected by 1.5 mL TRIzol-LS or 3 mL TRIzol, respectively, homogenized and then frozen under −80° C. for storage.
4. […]

| SMILES | abundance of sRNA in the cells (Taqman probe) (A549 cell) | localization of delivered nucleic acid (FISH) (A549 cell line) | effect on the mutated 3′UTR of target genes (Luciferase) [1] | relative expression level of the Luciferase with the wild-type 3′UTR [1] | entry of HJT-sRNA-m7 into blood and lung (RT-qPCR) [2] |
| --- | --- | --- | --- | --- | --- |
| CCCCC/C=C\C/C=C\CCCCCCCC(=O)O[C@H](COC(=O)CCCCCCCCCCCCCCCCC)COP(=O)([O-])OCC[N+](C)(C)C [No. 11, trimethyl(2-{[(2R)-2-[(9Z,12Z)-octadeca-9,12-dienoyloxy]-3-(octadecanoyloxy)propylphosphonato]oxy}ethyl)azanium] | could effectively facilitate nucleic acid molecules of different sequences entry into various cells | entered into cytoplasm and were primarily localized in cytoplasm | did not act on the mutated 3′UTR of their target genes | reduced the relative expression level of the Luciferase with the wild-type 3′UTR in the target gene | could promote entry of small fragments of nucleic acids into the blood and lung |
| CCCCC/C=C\C/C=C\CCCCCCCC(=O)O[C@H](COC(=O)CCCCCCCCCCCCCCC)COP(=O)([O-])OCC[N+](C)(C)C [No. 12, (2-{[(2R)-3-(hexadecanoyloxy)-2-[(9Z,12Z)-octadeca-9,12-dienoyloxy]propylphosphonato]oxy}ethyl)trimethylazanium] | could effectively facilitate nucleic acid molecules of different sequences entry into various cells | entered into cytoplasm and were primarily localized in cytoplasm | did not act on the mutated 3′UTR of their target genes | reduced the relative expression level of the Luciferase with the wild-type 3′UTR in the target gene | could promote entry of small fragments of nucleic acids into the blood and lung |
